# Measurements as given in patent US11306084B2, “Integrin antagonists” (Saint Louis University, priority 2016, dated 2022).
# Counter-ions that a name gives are not always drawn.
# Legend:
# Type in all cases: binding
# [1] = target: T1, Recombinant human integrin ανβ6 (Homo sapiens, UniProt P06756+P18564); test: Solid Phase Receptor Assay (SPRA) for ανβ6 function; conditions: plate-bound human LAP; read-out: αvβ6 SPRA IC50
# T1 construct: purchased R&D Systems 3817-AV
# Method: E. Solid Phase Receptor Assay (SPRA) for ανβ6 Function
# Wells were washed 3 times with 150 μL TBS+, and then 150 μL of blocking buffer (TBS+ with 1% bovine serum albumin, Sigma A7906) was added. The plate was incubated for 1 hr at 37° C., and then washed 3× with TBS+ buffer. […] Compounds were diluted to 20 μM and then 1 μL was added to each well of the plate according to a standard template with each sample repeated in triplicate. After incubation for two hours at room temperature, the plate was washed 3× with 150 μL of TBS+ buffer. To each well, 50 μL of biotinylated anti-αν antibody (R&D Systems, BAF1219) at 0.5 μg/mL in TBS+/0.1% BSA were added and the plate was covered and incubated for 1 hr at room temperature. After washing the plate 3× with 150 μL of TBS+ buffer, 50 μL of streptavidin-conjugated horseradish peroxidase (R&D Systems, DY998) diluted in TBS+ blocking buffer were added to the wells and the plate incubated for 20 min at room temperature. The plate was washed 3× with TBS+ buffer followed by 50 μL of TMB substrate (Sigma T4444) added to each well in the dark and the plate incubated for 10 min at room temperature. 25 μL of 1.0 M phosphoric acid was added as a stop solution and the plates were read at 450 nm using a Spectramax plate reader.
# [2] = target: T2, Recombinant human integrin ανβ8 (Homo sapiens, UniProt P06756+P26012); test: Solid Phase Receptor Assay (SPRA) for ανβ8 function; conditions: plate-bound human LAP; read-out: αvβ8 SPRA IC50
# T2 construct: purchased R&D Systems 4135-AV
# Method: F. Solid Phase Receptor Assay (SPRA) for ανβ8 Function
# Wells were washed 3 times with 150 μL TBS+ and then 150 μL of blocking buffer (TBS+ with 1% bovine serum albumin, Sigma A7906) was added. The plate was incubated for 1 hr at 37° C. and then washed 3× with TBS+. […] Compounds were diluted to 20 μM and 1 μL was added to each well of the plate according to a standard template with each sample repeated in triplicate. After incubation for two hours at room temperature, the plate was washed 3× with 150 μL of TBS+. To each well, 50 μL of biotinylated anti-αν antibody (R&D Systems, BAF1219) at 1 μg/mL in TBS+/0.1% BSA were added and the plate was covered and incubated for 1 hr at room temperature. After washing the plate 3× with 150 μL. of TBS+ buffer, 50 μL of streptavidin-conjugated horseradish peroxidase (R&D Systems, DY998) diluted in TBS+ blocking buffer were added to the wells and the plate incubated for 20 min at room temperature. The plate was washed 3× with TBS+ followed by 50 μL of TMB substrate (Sigma T4444) added to each well in the dark and the plate incubated for 10 min at room temperature. 25 μL of 1.0 M phosphoric acid was added as a stop solution and the plates were read at 450 nm using a Spectramax plate reader.
# [3] = target: T3, Recombinant human integrin ανβ5 (Homo sapiens, UniProt P06756+P18084); test: Solid Phase Receptor Assay (SPRA) for ανβ5 function; conditions: plate-bound human vitronectin; read-out: αvβ5 SPRA IC50
# T3 construct: purchased R&D Systems 2528-AV
# Method: D. Solid Phase Receptor Assay (SPRA) for ανβ5 Function
# Wells were washed 3 times with 150 μL TBS+ and then 150 μL of blocking buffer (TBS+ with 1% bovine serum albumin, Sigma A7906) was added. The plate was incubated for 1 hr at 37° C. and then washed 3× with TBS+ buffer. […] Compounds were diluted to 20 μM and then 1 μL was added to each well of the plate according to a standard template with each sample repeated in triplicate. After incubation for two hours at room temperature, the plate was washed 3× with 150 μL of TBS+ buffer. To each well, 50 μl of biotinylated anti-αν antibody (R&D Systems, BAF1219) at 0.5 μg/mL in TBS+/0.1% BSA at 0.5 μg/mL were added and the plate covered and incubated for 1 hr at room temperature. After washing the plate 3 with 150 μL of TBS+ buffer, 50 μL of streptavidin-conjugated horseradish peroxidase (R&D Systems, DY998) diluted in TBS+ blocking buffer were added to the wells and the plate incubated for 20 min at room temperature. The plate was washed 3× with TBS+ buffer followed by 50 μL of TMB substrate (Sigma T4444) added to each well in the dark and the plate incubated for 5 min at room temperature. 25 μL of 1.0 M phosphoric acid was added as a stop solution and the plates were read at 450 nm using a Spectramax plate reader.
# [4] = target: T4, Recombinant human integrin α5β1 (Homo sapiens, UniProt P05556+P08648); test: Solid Phase Receptor Assay (SPRA) for α5β1 function; conditions: plate-bound human fibronectin
# T4 construct: purchased R&D Systems 3230-A5
# Method: A. Solid Phase Receptor Assay (SPRA) for α5β1 Function
# Wells were washed 3 times with 150 μL TBS+ and then 150 μL of blocking buffer (TBS+ with 1% bovine serum albumin, Sigma A7906) was added. The plate was incubated for 1 hr at 37° C. and then washed 3× with TBS+ buffer. […] Compounds were diluted to 20 μM and then 1 μL was added to each well of the plate according to a standard template with each sample repeated in triplicate. After incubation for two hours at room temperature, the plate was washed 3× with 150 μL of TBS+ buffer. To each well, 50 μL of biotinylated anti-α5 antibody (R&D Systems, BAF1864) at 0.5 μg/mL in TBS+/0.1% BSA were added and the plate covered and incubated for 1 hr at room temperature. After washing the plate 3× with 150 μL of TBS+ buffer, 50 μL of streptavidin-conjugated horseradish peroxidase (R&D Systems, DY998) diluted in TBS+ blocking buffer were added to the wells and the plate incubated for 20 min at room temperature. The plate was washed 3× with TBS+ buffer followed by 50 μL of room temperature TMB substrate (Sigma, T4444) added to each well in the dark and the plate incubated for 25 min at room temperature. 25 μL of 1.0 M phosphoric acid was added as a stop solution and the plates were read at 450 nm using a Spectramax plate reader.
# T1 sequence (P06756 31-992 limits assumed): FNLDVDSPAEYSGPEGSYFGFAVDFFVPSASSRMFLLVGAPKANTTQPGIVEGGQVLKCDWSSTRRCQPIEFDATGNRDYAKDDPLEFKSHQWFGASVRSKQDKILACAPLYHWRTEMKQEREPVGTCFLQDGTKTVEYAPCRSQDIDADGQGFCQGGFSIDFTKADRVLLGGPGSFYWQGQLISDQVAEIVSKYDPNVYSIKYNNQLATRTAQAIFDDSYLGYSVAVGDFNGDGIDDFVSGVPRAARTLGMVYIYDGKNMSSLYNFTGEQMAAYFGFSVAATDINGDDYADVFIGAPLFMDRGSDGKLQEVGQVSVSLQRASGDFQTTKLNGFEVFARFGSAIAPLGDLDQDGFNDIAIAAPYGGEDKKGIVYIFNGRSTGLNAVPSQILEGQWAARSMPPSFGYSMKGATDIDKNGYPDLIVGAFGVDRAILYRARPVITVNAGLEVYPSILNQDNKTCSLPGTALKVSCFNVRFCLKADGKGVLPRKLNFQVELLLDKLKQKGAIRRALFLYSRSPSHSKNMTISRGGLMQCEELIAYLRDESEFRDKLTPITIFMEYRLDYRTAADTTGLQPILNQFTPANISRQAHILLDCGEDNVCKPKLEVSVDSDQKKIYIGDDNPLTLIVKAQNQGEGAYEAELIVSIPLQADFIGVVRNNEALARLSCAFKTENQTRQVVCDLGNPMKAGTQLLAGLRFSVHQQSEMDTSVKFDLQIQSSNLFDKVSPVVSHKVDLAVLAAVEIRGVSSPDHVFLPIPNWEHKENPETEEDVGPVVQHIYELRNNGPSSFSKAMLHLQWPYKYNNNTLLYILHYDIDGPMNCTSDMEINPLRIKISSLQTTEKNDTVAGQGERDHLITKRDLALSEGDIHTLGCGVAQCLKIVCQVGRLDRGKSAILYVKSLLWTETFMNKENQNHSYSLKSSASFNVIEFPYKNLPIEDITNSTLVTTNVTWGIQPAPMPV
# T1 sequence (P18564 22-707 limits assumed): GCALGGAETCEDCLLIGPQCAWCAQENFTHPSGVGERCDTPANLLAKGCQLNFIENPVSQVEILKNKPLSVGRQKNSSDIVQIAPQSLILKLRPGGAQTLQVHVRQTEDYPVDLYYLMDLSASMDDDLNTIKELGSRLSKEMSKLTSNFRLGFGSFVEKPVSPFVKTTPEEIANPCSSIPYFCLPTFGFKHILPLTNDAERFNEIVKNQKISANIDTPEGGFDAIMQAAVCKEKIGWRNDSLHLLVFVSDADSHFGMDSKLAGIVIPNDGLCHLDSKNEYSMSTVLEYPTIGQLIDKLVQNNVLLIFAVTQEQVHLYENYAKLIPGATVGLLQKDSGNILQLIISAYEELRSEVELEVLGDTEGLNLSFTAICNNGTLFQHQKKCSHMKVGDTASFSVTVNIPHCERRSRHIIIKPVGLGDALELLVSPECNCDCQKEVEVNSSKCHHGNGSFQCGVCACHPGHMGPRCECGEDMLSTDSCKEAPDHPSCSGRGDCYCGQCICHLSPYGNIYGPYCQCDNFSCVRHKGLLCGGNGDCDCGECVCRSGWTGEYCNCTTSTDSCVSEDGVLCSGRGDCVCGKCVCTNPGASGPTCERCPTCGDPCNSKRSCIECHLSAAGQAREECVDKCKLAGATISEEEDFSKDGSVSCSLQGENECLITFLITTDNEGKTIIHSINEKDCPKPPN
# T2 sequence (P06756 31-992 limits assumed): as the sequence (P06756 31-992 limits assumed) above
# T2 sequence (P26012 43-684 limits assumed): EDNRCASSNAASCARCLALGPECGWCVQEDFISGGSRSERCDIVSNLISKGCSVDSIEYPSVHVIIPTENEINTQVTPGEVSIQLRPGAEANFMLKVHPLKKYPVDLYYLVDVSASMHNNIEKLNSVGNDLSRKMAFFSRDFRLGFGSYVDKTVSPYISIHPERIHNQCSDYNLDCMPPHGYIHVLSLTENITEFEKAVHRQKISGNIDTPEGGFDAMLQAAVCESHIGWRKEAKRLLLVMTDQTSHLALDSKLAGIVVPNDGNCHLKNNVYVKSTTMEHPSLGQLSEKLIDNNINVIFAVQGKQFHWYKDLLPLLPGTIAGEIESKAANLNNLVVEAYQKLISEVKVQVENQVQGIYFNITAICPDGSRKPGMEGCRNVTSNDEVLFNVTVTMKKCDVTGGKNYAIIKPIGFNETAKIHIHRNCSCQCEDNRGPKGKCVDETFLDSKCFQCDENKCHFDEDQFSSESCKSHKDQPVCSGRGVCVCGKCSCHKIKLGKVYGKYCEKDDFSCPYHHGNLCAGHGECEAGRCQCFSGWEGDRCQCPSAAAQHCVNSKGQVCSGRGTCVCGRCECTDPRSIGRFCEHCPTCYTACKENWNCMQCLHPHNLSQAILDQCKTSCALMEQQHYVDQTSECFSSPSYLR
# T3 sequence (P06756 31-992 limits assumed): as the sequence (P06756 31-992 limits assumed) above
# T3 sequence (P18084 24-719 limits assumed): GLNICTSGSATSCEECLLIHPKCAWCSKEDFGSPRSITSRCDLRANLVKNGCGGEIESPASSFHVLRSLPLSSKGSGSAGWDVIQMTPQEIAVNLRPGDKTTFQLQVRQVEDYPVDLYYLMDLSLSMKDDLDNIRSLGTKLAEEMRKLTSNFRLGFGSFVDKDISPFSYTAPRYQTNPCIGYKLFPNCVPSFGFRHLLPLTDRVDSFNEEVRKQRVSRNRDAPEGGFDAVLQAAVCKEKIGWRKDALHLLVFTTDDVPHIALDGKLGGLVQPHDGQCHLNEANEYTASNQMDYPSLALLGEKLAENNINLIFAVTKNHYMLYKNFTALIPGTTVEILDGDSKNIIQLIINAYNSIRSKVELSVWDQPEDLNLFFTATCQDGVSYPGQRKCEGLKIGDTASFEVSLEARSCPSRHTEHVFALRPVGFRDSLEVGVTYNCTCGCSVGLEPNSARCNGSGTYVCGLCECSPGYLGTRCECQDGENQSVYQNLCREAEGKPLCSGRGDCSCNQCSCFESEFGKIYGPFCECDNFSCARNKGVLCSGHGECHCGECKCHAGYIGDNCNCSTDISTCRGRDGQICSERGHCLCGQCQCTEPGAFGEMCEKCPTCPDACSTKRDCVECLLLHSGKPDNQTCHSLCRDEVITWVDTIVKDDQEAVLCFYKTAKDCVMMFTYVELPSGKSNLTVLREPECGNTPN
# T4 sequence (P08648 42-995 limits assumed): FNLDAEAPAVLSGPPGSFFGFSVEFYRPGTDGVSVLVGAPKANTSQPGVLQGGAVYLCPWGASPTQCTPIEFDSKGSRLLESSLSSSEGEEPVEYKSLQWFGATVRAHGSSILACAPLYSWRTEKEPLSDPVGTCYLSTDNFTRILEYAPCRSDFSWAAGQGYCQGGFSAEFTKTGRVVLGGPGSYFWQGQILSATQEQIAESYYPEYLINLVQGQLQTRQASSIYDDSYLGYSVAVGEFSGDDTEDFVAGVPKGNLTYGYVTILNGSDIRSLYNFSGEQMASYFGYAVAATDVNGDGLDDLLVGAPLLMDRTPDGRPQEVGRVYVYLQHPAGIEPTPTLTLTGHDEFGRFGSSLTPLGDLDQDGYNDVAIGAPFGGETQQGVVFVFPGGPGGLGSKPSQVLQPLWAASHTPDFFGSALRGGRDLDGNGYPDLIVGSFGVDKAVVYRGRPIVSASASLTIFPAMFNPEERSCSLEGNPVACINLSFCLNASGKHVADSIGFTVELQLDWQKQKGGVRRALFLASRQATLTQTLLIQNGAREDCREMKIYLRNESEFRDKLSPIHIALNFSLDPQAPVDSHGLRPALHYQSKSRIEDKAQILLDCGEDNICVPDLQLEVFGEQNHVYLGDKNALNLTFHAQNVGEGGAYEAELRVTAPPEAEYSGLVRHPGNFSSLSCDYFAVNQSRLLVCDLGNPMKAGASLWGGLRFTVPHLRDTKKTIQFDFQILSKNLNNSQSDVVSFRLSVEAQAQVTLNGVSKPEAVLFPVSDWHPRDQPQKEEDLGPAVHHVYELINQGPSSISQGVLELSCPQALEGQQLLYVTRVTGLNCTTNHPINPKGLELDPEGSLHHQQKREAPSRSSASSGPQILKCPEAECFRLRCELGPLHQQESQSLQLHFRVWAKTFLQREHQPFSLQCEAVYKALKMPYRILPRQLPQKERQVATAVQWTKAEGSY
# T4 sequence (P05556 21-728 limits assumed): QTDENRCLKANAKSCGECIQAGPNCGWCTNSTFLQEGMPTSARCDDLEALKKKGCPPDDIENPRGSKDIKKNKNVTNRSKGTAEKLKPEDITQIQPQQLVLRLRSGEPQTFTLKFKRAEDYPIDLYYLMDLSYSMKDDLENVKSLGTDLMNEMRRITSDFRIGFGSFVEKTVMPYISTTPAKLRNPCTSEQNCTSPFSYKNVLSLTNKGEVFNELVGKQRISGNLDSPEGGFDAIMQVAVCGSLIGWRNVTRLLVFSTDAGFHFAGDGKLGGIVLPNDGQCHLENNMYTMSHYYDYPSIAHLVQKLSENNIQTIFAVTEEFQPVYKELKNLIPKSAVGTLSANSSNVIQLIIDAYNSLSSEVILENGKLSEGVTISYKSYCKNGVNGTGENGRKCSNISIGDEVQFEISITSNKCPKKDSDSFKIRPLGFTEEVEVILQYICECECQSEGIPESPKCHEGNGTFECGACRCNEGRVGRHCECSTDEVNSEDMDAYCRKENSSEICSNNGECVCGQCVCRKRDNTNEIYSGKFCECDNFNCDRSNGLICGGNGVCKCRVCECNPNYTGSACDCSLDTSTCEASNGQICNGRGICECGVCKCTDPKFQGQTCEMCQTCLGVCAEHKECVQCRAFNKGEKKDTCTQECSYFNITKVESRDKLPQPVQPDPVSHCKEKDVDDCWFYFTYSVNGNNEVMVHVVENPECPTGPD
Structure (SMILES),IC50 [1],IC50 [2],IC50 [3],IC50 [4]
"Cn1nc(CC(CC(=O)O)c2cc(Br)cc(C(C)(C)C)c2)cc1OCCc1ccc2c(n1)NCCC2 (centres unmarked) [Example 16, 3-(3-bromo-5-tert-butyl-phenyl)-4-(1-methyl-5-(2-(5,6,7,8-tetrahydro-1,8-naphthyridin-2-yl)ethoxy)-1H-pyrazol-3-yl)butanoic Acid]",80 nM,7.8 nM,3.1 nM,30 nM
"Cn1nc(CC(CC(=O)O)c2cc(Br)cc(C(C)(C)C(F)(F)F)c2)cc1OCCc1ccc2c(n1)NCCC2 (centres unmarked) [Example 26, 3-[3-bromo-5-(2,2,2-trifluoro-1,1-dimethyl-ethyl)phenyl]-4-[1-methyl-5-[2-(5,6,7,8-tetrahydro-1,8-naphthyridin-2-yl)ethoxy]pyrazol-3-yl]butanoic Acid]",45 nM,9.3 nM,1.8 nM,16 nM
"CC(C)(C)c1cc(Br)cc(C(CC(=O)O)Cc2cc(OCCc3ccc4c(n3)NCCC4)n(CC(F)(F)F)n2)c1 (centres unmarked) [Example 41, 3-(3-bromo-5-tert-butyl-phenyl)-4-[5-[2-(5,6,7,8-tetrahydro-1,8-naphthyridin-2-yl)ethoxy]-1-(2,2,2-trifluoroethyl)pyrazol-3-yl]butanoic Acid Trifluoroacetate]",85 nM,6.9 nM,2.2 nM,6.5 nM
"Cn1nc(CC(CC(=O)O)c2cccc(Br)c2)cc1OCCc1ccc2c(n1)NCCC2 (centres unmarked) [Example 6, 3-(3-bromophenyl)-4-(1-methyl-5-(2-(5,6,7,8-tetrahydro-1,8-naphthyridin-2-yl)ethoxy)-1H-pyrazol-3-yl)butanoic Acid]",8 nM,19 nM,0.4 nM,158 nM
"Cn1nc(CC(CC(=O)O)c2cc(F)cc(Cl)c2)cc1OCCc1ccc2c(n1)NCCC2 (centres unmarked) [Example 2, 3-(3-chloro-5-fluorophenyl)-4-(1-methyl-5-(2-(5,6,7,8-tetrahydro-1,8-naphthyridin-2-yl)ethoxy)-1H-pyrazol-3-yl)butanoic Acid]",43 nM,32 nM,0.3 nM,192 nM
"Cn1nc(CC(CC(=O)O)c2cc(C(F)(F)F)cc(C(C)(C)C(F)(F)F)c2)cc1OCCc1ccc2c(n1)NCCC2 (centres unmarked) [Example 25, 4-[1-methyl-5-[2-(5,6,7,8-tetrahydro-1,8-naphthyridin-2-yl)ethoxy]pyrazol-3-yl]-3-[3-(2,2,2-trifluoro-1,1-dimethylethyl)-5-(trifluoromethyl)phenyl]butanoic Acid]",25 nM,12 nM,2.9 nM,12 nM
"COc1ccc(Br)cc1C(CC(=O)O)Cc1cc(OCCc2ccc3c(n2)NCCC3)n(C)n1 (centres unmarked) [Example 14, 3-(5-bromo-2-methoxyphenyl)-4-(1-methyl-5-(2-(5,6,7,8-tetrahydro-1,8-naphthyridin-2-yl)ethoxy)-1H-pyrazol-3-yl)butanoic acid trifluoroacetate]",22 nM,12 nM,7.9 nM,44 nM
"COc1ccc(C(F)(F)F)cc1C(CC(=O)O)Cc1cc(OCCc2ccc3c(n2)NCCC3)n(C)n1 (centres unmarked) [Example 13, 3-(2-methoxy-5-(trifluoromethyl)phenyl)-4-(1-methyl-5-(2-(5,6,7,8-tetrahydro-1,8-naphthyridin-2-yl)ethoxy)-1H-pyrazol-3-yl)butanoic Acid Trifluoroacetate]",51 nM,26 nM,16 nM,59 nM
"COCC1(c2cc(C(CC(=O)O)Cc3cc(OCCc4ccc5c(n4)NCCC5)n(C)n3)cc(C(F)(F)F)c2)CCOCC1 (centres unmarked) [Example 31, 3-(3-(4-(methoxymethyl)tetrahydro-2H-pyran-4-yl)-5-(trifluoromethyl)phenyl)-4-(1-methyl-5-(2-(5,6,7,8-tetrahydro-1,8-naphthyridin-2-yl)ethoxy)-1H-pyrazol-3-yl)butanoic Acid]",63 nM,9.9 nM,3.3 nM,12 nM
"COc1ccc(C(C)C)cc1C(CC(=O)O)Cc1cc(OCCc2ccc3c(n2)NCCC3)n(C)n1 (centres unmarked) [Example 39, 3-(5-isopropyl-2-methoxyphenyl)-4-(1-methyl-5-(2-(5,6,7,8-tetrahydro-1,8-naphthyridin-2-yl)ethoxy)-1H-pyrazol-3-yl)butanoic Acid Trifluoroacetate]",230 nM,110 nM,96 nM,31 nM
"Cn1nc(CC(CC(=O)O)c2cc(Br)cc(OC(F)(F)F)c2)cc1OCCc1ccc2c(n1)NCCC2 (centres unmarked) [Example 11, 3-(3-bromo-5-(trifluoromethoxy)phenyl)-4-(1-methyl-5-(2-(5,6,7,8-tetrahydro-1,8-naphthyridin-2-yl)ethoxy)-1H-pyrazol-3-yl)butanoic Acid]",60 nM,42 nM,0.8 nM,150 nM
"Cn1nc(CC(CC(=O)O)c2cccc(C#N)c2)cc1OCCc1ccc2c(n1)NCCC2 (centres unmarked) [Example 9, 3-(3-cyanophenyl)-4-(1-methyl-5-(2-(5,6,7,8-tetrahydro-1,8-naphthyridin-2-yl)ethoxy)-1H-pyrazol-3-yl)butanoic Acid]",12 nM,62 nM,0.2 nM,110 nM
"Cn1nc(CC(CC(=O)O)c2cc(C#N)cc(C(C)(C)C(F)(F)F)c2)cc1OCCc1ccc2c(n1)NCCC2 (centres unmarked) [Example 28, 3-[3-cyano-5-(2,2,2-trifluoro-1,1-dimethyl-ethyl)phenyl]-4-[1-methyl-5-[2-(5,6,7,8-tetrahydro-1,8-naphthyridin-2-yl)ethoxyl]pyrazol-3-yl]butanoic Acid Trifluoroacetate]",15 nM,3.5 nM,0.8 nM,8.5 nM
"Cn1nc(CC(CC(=O)O)c2cc(C(C)(C)C)ccc2Cl)cc1OCCc1ccc2c(n1)NCCC2 (centres unmarked) [Example 43, 3-(5-(tert-butyl)-2-chlorophenyl)-4-(1-methyl-5-(2-(5,6,7,8-tetrahydro-1,8-naphthyridin-2-yl)ethoxy)-1H-pyrazol-3-yl)butanoic Acid Trifluoroacetate]",800 nM,88 nM,16.6 nM,77 nM
